Reference: patent US20040033213A1, “Methods of modulating dendritic cells using adjuvants” (Corixa Corporation, priority 2002, published 2004)

Key:
[1] = system: cultured human DCs + autologous T cells; format: cell-based
[2] = system: 6-7 day cultured human dendritic cells; experiment: ELISA of cytokines (IL-12 p40, IL-12 p70, TNF-α) in 22 h induction supernatants of cultured human dendritic cells; format: cell-based; settings: for IL-12 p40 / IL-12 p70 / TNF-α: 22 Hrs; for IL-12 p40 / IL-12 p70 / TNF-α / IL-12 (p40) expression (in words): LPS 10 ng/ml, others 100 ng/ml; for IL-12 (p40) expression (in words): all three experiments; for IL-12 (p70) (in words): the one donor in which LPS and MPL-S gave a significant amount; for TNF-α secretion (in words): three donors
Text: Recent articles have described how human dendritic cells can be derived in vitro from CD14 positive monocyte precursors in peripheral blood. A “buffy coat” preparation can now be commonly obtained from a unit of normal human peripheral blood from a blood bank on request. The leukocyte fraction was harvested from this buffy coat preparation using standard ficoll centrifugation techniques. Subsequently, the leukocyte fraction was labeled with anti-CD 14 antibody coupled to magnetic microbeads. This preparation was then passed over a magnet (Miltanyi Biotech) and CD14 positive monocytes were collected. These CD14 positive monocyte precursors were then cultured for 5-7 days in vitro (5×10^5 cells/ml) with GM-CSF (20 ng/ml) for the duration of the culture. […] After the 24 hour in vitro stimulation culture, cells were washed twice and stained with a panel of monoclonal antibodies specific for different cell surface activation and co-receptor molecules found on mature, activated DCs.
Supernatants from DCs stimulated with LPS, MPL® immunostimulant-S, RC-527, RC-529, and RC-544 were collected and tested by ELISA analysis for cytokines.

[3] = system: KJ1 positive D011.10 CD4 T cells; experiment: OVA pulsed DC transfer into D011.10 loaded Balb/c mice; format: in vivo; settings: for Total KJ1 Positive Cells/Spleen: others 100 ng/ml
Experimental: In a second experiment 6-7 day bone marrow derived (Balb/c) DCs were pulsed with antigen and subsequently stimulated overnight with LPS, MPL® immunostimulant-S, and RC-527 (Table 6). 5×10^6 D011.10 CD4 (KJ1-positive) T cells were transferred into Balb/c mice, and 24 hours later ova-pulsed cultured, DCs from the control group (pulsed with ova only) and the indicated test DCs potentiated with LPS, MPL® immunostimulant-S or RC-527 were also injected intravenously. […] The transferred DCs stimulated with ova only, ova+LPS and ova+MPL® immunostimulant-S produced a similar effect in inducing the amplification of D011.10 T lymphocyte numbers above the value observed when untreated DCs (i.e., no ova and no lipid A) were used as the putative APC source and transfected into Balb/c mice preinjected with KJ1 CD4 cells.
5×10^6 KJ1 positive D011.10 spleen cells were injected into Balb/c mice (I.V.) on day zero minus 1; 24 hrs later 5×10^6 DC's from the indicated in vitro induction test groups were injected I.V. and the spleens from test animals were harvested 3 and 5 days later for total KJ1 enumeration.

[4] = system: cultured human dendritic cells (DC); experiment: Flow cytometry of cell surface activation markers on human DCs restimulated 72 hours with AGPs (titration); format: cell-based; settings: titration 0.1-2 μg/ml, FIG. 18
[5] = system: cryogenically stored 10 day murine DCs + D011.10 effector T cells; experiment: Cryogenically preserved 10 day murine DCs in the D011.10 T cell assay (IFN-γ ELISA); format: cell-based
Experimental: In order to determine if 10 day GM-CSF precultured DCs could be recovered from cryogenic storage and still retain their functional potential, studies were carried out to determine the functional integrity of LPS- and RC-527-stimulated, cryogenically preserved, 10 day DCs in the D011.10 T cell assay system. Specifically, 10 day GM-CSF-precultured DCs were stored in liquid nitrogen for several weeks. The cells were subsequently thawed and maintained for 24 hours in tissue culture in the presence of GM-CSF. After 24 hours in this “resting” culture, DCs were pulsed with ova for four hours and potentiated with LPS for 24 hours prior to placing them against D011.10 effector T cells at 4:1 and 8:1 ratios.
D011.10 effector T cell cultures were maintained for 24 hours and 48 hours, and culture supernatants were collected at both time points. These supernatants were tested for IFN-γ using a commercial ELISA system. The IFNγ response induced either by antigen-pulsed, lipid A stimulated DCs after 24 hours incubation with D011.10 T cells (FIG. 13a) or by LPS and RC-527 stimulated, cryogenically stored, cultured DCs after 48 hours of incubation with D011.10 effector T cells (FIG. 13b) was measured.

[6] = Exp. # 092398 (second line, Day7)
[7] = Exp. # 092398 as printed (first line of section)
[8] = Exp. # 092398 as printed (third line of section)

| SMILES | T cell proliferation / DC activation, CPM 3H-thymidine response (in words) [1] | IL-12 p40 ([2]; Exp. # 091698) | IL-12 p70 [2, 6] | IL-12 p40 ([2]; Exp. # 092398, Day 7) | TNF-α ([2]; Exp. # 092398, Day 7) | IL-12 p70 [2, 7] | IL-12 p70 [2, 8] | IL-12 p40 ([2]; Exp. # 093098) | TNF-α ([2]; Exp. # 093098) | IL-12 (p40) expression (in words) [2] | IL-12 (p70) (in words) [2] | TNF-α secretion (in words) [2] | further results |
| --- | --- | --- | --- | --- | --- | --- | --- | --- | --- | --- | --- | --- | --- |
| CCCCCCCCCCCCCC(=O)O[C@H](CCCCCCCCCCC)CC(=O)NCCO[C@@H]1O[C@H](CO)[C@@H](OP(=O)(O)O)[C@H](OC(=O)C[C@@H](CCCCCCCCCCC)OC(=O)CCCCCCCCCCCCC)[C@H]1NC(=O)C[C@@H](CCCCCCCCCCC)OC(=O)CCCCCCCCCCCCC.CCN(CC)CC [RC-529, 2-[(R)-3-Tetradecanoyloxytetradecanoylamino]ethyl 2-Deoxy-4-O-phosphono-3-O-[(R)-3-tetradecanoyoxytetradecanoyl]-2-[(R)-3-tetradecanoyoxytetradecanoylamino]-β-D-glucopyranoside triethylammonium salt] | comparable in their effect and quantitatively higher than the background response | 38,700 pg/mL/5 × 10^5 Cells | 215.3 pg/ml/5 × 10^5 Cells | 127,500 pg/mL/5 × 10^5 Cells | 7,400 pg/mL/5 × 10^5 Cells | 4.2 pg/ml/5 × 10^5 Cells | 28.2 pg/ml/5 × 10^5 Cells | 60,700 pg/mL/5 × 10^5 Cells | 372 pg/mL/5 × 10^5 Cells | also stimulated IL-12 (p40) responses | high levels of IL-12 (p70) | moderately lower than the effect due to RC-527 | – |
| CCCCCCCCCCCC(CC(=O)NC(COC1OC(CO)C(OP(=O)(O)O)C(OC(=O)CC(CCCCCCCCCCC)OC(=O)CCCCCCCCC)C1NC(=O)CC(CCCCCCCCCCC)OC(=O)CCCCCCCCC)C(=O)O)OC(=O)CCCCCCCCC (stereo not drawn) [RC-527] | highest levels of DC activation compared to MPL® immunostimulant | 202,200 pg/mL/5 × 10^5 Cells | 201.4 pg/ml/5 × 10^5 Cells | 163,000 pg/mL/5 × 10^5 Cells | 10,750 pg/mL/5 × 10^5 Cells | 194.0 pg/ml/5 × 10^5 Cells | 168.9 pg/ml/5 × 10^5 Cells | 107,600 pg/mL/5 × 10^5 Cells | 4,000 pg/mL/5 × 10^5 Cells | in every case a potent stimulator of IL-12 (p40) | high levels of IL-12 (p70) | very strong TNF-α effect in all three donors | Total KJ1 Positive Cells/Spleen ([3]; Day 3 after I.V. transfer of 5×10^6 OVA pulsed DCs stimulated in vitro, LPS 10 ng/ml): 4.1 × 10^6 Cells/Spleen; Total KJ1 Positive Cells/Spleen ([3]; Day 5 after I.V. transfer of 5×10^6 OVA pulsed DCs stimulated in vitro, LPS 10 ng/ml): 3.0 × 10^6 Cells/Spleen; splenic KJ1+ CD4 T cell numbers (in words) ([3]; day 3 and day 5 after transfer of stimulated DCs): higher levels of splenic KJ1^+ CD4 T cell numbers than any of the other test groups at both time points; KJ1+ CD4 response, % of all splenic CD4 cells ([3]; second, similar DC transfer experiment, at 5 days, LPS 10 ng/ml, MPL-S 100 ng/ml): 3.9%; CD86 expression, mean channel fluorescence (in words) [4]: highest stimulation of CD86 expression over most of the titration range; IFN-γ response of cryogenically stored DCs after antigen pulsing and activation (in words) ([5]; compared with unfrozen 10 day DCs): fully capable of supporting an IFNγ response; IFN-γ response, 48 hours versus 24 hours of incubation (in words) ([5]; cryogenically stored DCs, FIG. 13): significantly stronger IFN-γ response after 48 hours; TNF-α ([2]; Exp. # 093098 (third line of section)): 7,020 pg/mL/5 × 10^5 Cells; IL-12 (p70) expression (in words) ([2]; the other two experiments (different normal donors)): significant levels of IL-12 (p70) expression |
